Test results from PubChem BioAssay AID1963436 (Molecular Pharmacology Branch, DTP, NCI, 2024).

System: OVCAR-5 complex spheroid (HUVEC/MSC), viability % T/C
Experiment: Anticancer human tumor OVCAR-5 cell line growth inhibition [Asc];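 further: spheroids exposed to agents for 7 days before readout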;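 on viability, T/C: 100% = DMSO vehicle-treated wells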
Details: for IC50: curve of first compound; for viability, T/C: stronger effect = lower value
Outline: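 Tumor cells were grown as multicellular spheroids with stromal HUVEC and mesenchymal stem cells and treated singly or in combination. Concentrations fell in half-log steps from the clinical Cmax, or from 10 microM where none was known.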

[1] = second compound 0.01 µM, first compound 0.00316 µM
[2] = second compound 0.01 µM, first compound 0.01 µM
[3] = second compound 0.01 µM, first compound 0.0316 µM
[4] = second compound 0.01 µM, first compound 0.1 µM
[5] = second compound 0.01 µM, first compound 0.316 µM
[6] = second compound 0.01 µM, first compound 1 µM
[7] = second compound 0.0316 µM, first compound 0.00316 µM
[8] = second compound 0.0316 µM, first compound 0.01 µM
[9] = second compound 0.0316 µM, first compound 0.0316 µM
[10] = second compound 0.0316 µM, first compound 0.1 µM
[11] = second compound 0.0316 µM, first compound 0.316 µM
[12] = second compound 0.0316 µM, first compound 1 µM
[13] = second compound 0.1 µM, first compound 0.00316 µM
[14] = second compound 0.1 µM, first compound 0.01 µM
[15] = second compound 0.1 µM, first compound 0.0316 µM
[16] = second compound 0.1 µM, first compound 0.1 µM
[17] = second compound 0.1 µM, first compound 0.316 µM
[18] = second compound 0.1 µM, first compound 1 µM
[19] = second compound 0.316 µM, first compound 0.00316 µM
[20] = second compound 0.316 µM, first compound 0.01 µM
[21] = second compound 0.316 µM, first compound 0.0316 µM
[22] = second compound 0.316 µM, first compound 0.1 µM
[23] = second compound 0.316 µM, first compound 0.316 µM
[24] = second compound 0.316 µM, first compound 1 µM
[25] = second compound 1 µM, first compound 0.00316 µM
[26] = second compound 1 µM, first compound 0.01 µM
[27] = second compound 1 µM, first compound 0.0316 µM
[28] = second compound 1 µM, first compound 0.1 µM
[29] = second compound 1 µM, first compound 0.316 µM
[30] = second compound 1 µM, first compound 1 µM
[31] = second compound 0.01 µM, first compound 0.000316 µM
[32] = second compound 0.01 µM, first compound 0.001 µM
[33] = second compound 0.0316 µM, first compound 0.000316 µM
[34] = second compound 0.0316 µM, first compound 0.001 µM
[35] = second compound 0.1 µM, first compound 0.000316 µM
[36] = second compound 0.1 µM, first compound 0.001 µM
[37] = second compound 0.316 µM, first compound 0.000316 µM
[38] = second compound 0.316 µM, first compound 0.001 µM
[39] = second compound 1 µM, first compound 0.000316 µM
[40] = second compound 1 µM, first compound 0.001 µM

## CCN1CCN(Cc2ccc(Nc3ncc(F)c(-c4cc(F)c5nc(C)n(C(C)C)c5c4)n3)nc2)CC1 + CNC(C)C(=O)NC1CN(S(=O)(=O)c2cccc(S(=O)(=O)N3CCC4CCC(C(=O)NC(c5ccccc5)c5ccccc5)N4C(=O)C(NC(=O)C(C)NC)C3)c2)CCC2CCC(C(=O)NC(c3ccccc3)c3ccccc3)N2C1=O
Second compound 0.01 µM
  IC50: > 1000 nM
Second compound 0.0316 µM
  IC50: > 1000 nM
Second compound 0.1 µM
  IC50: > 1000 nM
Second compound 0.316 µM
  IC50: 642 nM
Second compound 1 µM
  IC50: > 1000 nM
[1]
  viability, T/C: 87.1%
[2]
  viability, T/C: 83.2%
[3]
  viability, T/C: 67.7%
[4]
  viability, T/C: 59.5%
[5]
  viability, T/C: 62.7%
[6]
  viability, T/C: 49.9%
[7]
  viability, T/C: 76%
[8]
  viability, T/C: 71.9%
[9]
  viability, T/C: 58.4%
[10]
  viability, T/C: 55.2%
[11]
  viability, T/C: 57.2%
[12]
  viability, T/C: 49.3%
[13]
  viability, T/C: 76.8%
[14]
  viability, T/C: 67.2%
[15]
  viability, T/C: 55.4%
[16]
  viability, T/C: 50%
[17]
  viability, T/C: 55%
[18]
  viability, T/C: 47%
[19]
  viability, T/C: 69.3%
[20]
  viability, T/C: 70.3%
[21]
  viability, T/C: 59%
[22]
  viability, T/C: 54.8%
[23]
  viability, T/C: 52%
[24]
  viability, T/C: 49.4%
[25]
  viability, T/C: 76.8%
[26]
  viability, T/C: 65.3%
[27]
  viability, T/C: 65.9%
[28]
  viability, T/C: 58.9%
[29]
  viability, T/C: 51.9%
[30]
  viability, T/C: 51.5%

## Cn1ncnc1[C@H]1c2n[nH]c(=O)c3cc(F)cc(c23)N[C@@H]1c1ccc(F)cc1 + CNC(C)C(=O)NC1CN(S(=O)(=O)c2cccc(S(=O)(=O)N3CCC4CCC(C(=O)NC(c5ccccc5)c5ccccc5)N4C(=O)C(NC(=O)C(C)NC)C3)c2)CCC2CCC(C(=O)NC(c3ccccc3)c3ccccc3)N2C1=O
Second compound 0.01 µM
  IC50: > 100 nM
Second compound 0.0316 µM
  IC50: > 100 nM
Second compound 0.1 µM
  IC50: > 100 nM
Second compound 0.316 µM
  IC50: > 100 nM
Second compound 1 µM
  IC50: > 100 nM
[31]
  viability, T/C: 92.5%
[32]
  viability, T/C: 86.9%
[1]
  viability, T/C: 85.9%
[2]
  viability, T/C: 84.3%
[3]
  viability, T/C: 92.3%
[4]
  viability, T/C: 86.5%
[33]
  viability, T/C: 81.8%
[34]
  viability, T/C: 77.6%
[7]
  viability, T/C: 84.5%
[8]
  viability, T/C: 73.2%
[9]
  viability, T/C: 73.9%
[10]
  viability, T/C: 74.6%
[35]
  viability, T/C: 78.3%
[36]
  viability, T/C: 88.3%
[13]
  viability, T/C: 81.6%
[14]
  viability, T/C: 71.7%
[15]
  viability, T/C: 73.4%
[16]
  viability, T/C: 68.5%
[37]
  viability, T/C: 81.5%
[38]
  viability, T/C: 85.8%
[19]
  viability, T/C: 85.1%
[20]
  viability, T/C: 71.5%
[21]
  viability, T/C: 80.7%
[22]
  viability, T/C: 74.8%
[39]
  viability, T/C: 88.3%
[40]
  viability, T/C: 94.4%
[25]
  viability, T/C: 78.6%
[26]
  viability, T/C: 72.7%
[27]
  viability, T/C: 76.1%
[28]
  viability, T/C: 69.1%

## NC(=O)C(=Cn1cnc(-c2cc(C(F)(F)F)cc(C(F)(F)F)c2)n1)c1cncnc1 + CNC(C)C(=O)NC1CN(S(=O)(=O)c2cccc(S(=O)(=O)N3CCC4CCC(C(=O)NC(c5ccccc5)c5ccccc5)N4C(=O)C(NC(=O)C(C)NC)C3)c2)CCC2CCC(C(=O)NC(c3ccccc3)c3ccccc3)N2C1=O
Second compound 0.01 µM
  IC50: 222 nM
Second compound 0.0316 µM
  IC50: 147 nM
Second compound 0.1 µM
  IC50: 135 nM
Second compound 0.316 µM
  IC50: 141 nM
Second compound 1 µM
  IC50: 124 nM
Second compound 0.01 µM, first compound 0.000949 µM
  viability, T/C: 95.4%
Second compound 0.01 µM, first compound 0.003 µM
  viability, T/C: 95.5%
Second compound 0.01 µM, first compound 0.00949 µM
  viability, T/C: 91.4%
Second compound 0.01 µM, first compound 0.03 µM
  viability, T/C: 76.5%
Second compound 0.01 µM, first compound 0.0949 µM
  viability, T/C: 63%
Second compound 0.01 µM, first compound 0.3 µM
  viability, T/C: 45.5%
Second compound 0.0316 µM, first compound 0.000949 µM
  viability, T/C: 96%
Second compound 0.0316 µM, first compound 0.003 µM
  viability, T/C: 89.2%
Second compound 0.0316 µM, first compound 0.00949 µM
  viability, T/C: 73.3%
Second compound 0.0316 µM, first compound 0.03 µM
  viability, T/C: 67.7%
Second compound 0.0316 µM, first compound 0.0949 µM
  viability, T/C: 60%
Second compound 0.0316 µM, first compound 0.3 µM
  viability, T/C: 39%
Second compound 0.1 µM, first compound 0.000949 µM
  viability, T/C: 86.6%
Second compound 0.1 µM, first compound 0.003 µM
  viability, T/C: 89.9%
Second compound 0.1 µM, first compound 0.00949 µM
  viability, T/C: 77.4%
Second compound 0.1 µM, first compound 0.03 µM
  viability, T/C: 66.3%
Second compound 0.1 µM, first compound 0.0949 µM
  viability, T/C: 57.2%
Second compound 0.1 µM, first compound 0.3 µM
  viability, T/C: 38%
Second compound 0.316 µM, first compound 0.000949 µM
  viability, T/C: 82.2%
Second compound 0.316 µM, first compound 0.003 µM
  viability, T/C: 84.1%
Second compound 0.316 µM, first compound 0.00949 µM
  viability, T/C: 69.4%
Second compound 0.316 µM, first compound 0.03 µM
  viability, T/C: 66.7%
Second compound 0.316 µM, first compound 0.0949 µM
  viability, T/C: 60%
Second compound 0.316 µM, first compound 0.3 µM
  viability, T/C: 37%
Second compound 1 µM, first compound 0.000949 µM
  viability, T/C: 85.7%
Second compound 1 µM, first compound 0.003 µM
  viability, T/C: 82.8%
Second compound 1 µM, first compound 0.00949 µM
  viability, T/C: 79.8%
Second compound 1 µM, first compound 0.03 µM
  viability, T/C: 70.6%
Second compound 1 µM, first compound 0.0949 µM
  viability, T/C: 54.9%
Second compound 1 µM, first compound 0.3 µM
  viability, T/C: 33.4%

## NC1CCC(NC2CC2c2ccccc2)CC1 (stereo not given) + CNC(C)C(=O)NC1CN(S(=O)(=O)c2cccc(S(=O)(=O)N3CCC4CCC(C(=O)NC(c5ccccc5)c5ccccc5)N4C(=O)C(NC(=O)C(C)NC)C3)c2)CCC2CCC(C(=O)NC(c3ccccc3)c3ccccc3)N2C1=O
Second compound 0.01 µM
  IC50: > 100 nM
Second compound 0.0316 µM
  IC50: > 100 nM
Second compound 0.1 µM
  IC50: > 100 nM
Second compound 0.316 µM
  IC50: > 100 nM
Second compound 1 µM
  IC50: > 100 nM
[31]
  viability, T/C: 92.9%
[32]
  viability, T/C: 89.8%
[1]
  viability, T/C: 80.8%
[2]
  viability, T/C: 84.8%
[3]
  viability, T/C: 80.8%
[4]
  viability, T/C: 79.9%
[33]
  viability, T/C: 75.8%
[34]
  viability, T/C: 77.7%
[7]
  viability, T/C: 75.6%
[8]
  viability, T/C: 71.5%
[9]
  viability, T/C: 69.1%
[10]
  viability, T/C: 66.9%
[35]
  viability, T/C: 76.5%
[36]
  viability, T/C: 70%
[13]
  viability, T/C: 75.5%
[14]
  viability, T/C: 67.3%
[15]
  viability, T/C: 74.5%
[16]
  viability, T/C: 71%
[37]
  viability, T/C: 66.1%
[38]
  viability, T/C: 73%
[19]
  viability, T/C: 66.2%
[20]
  viability, T/C: 70.4%
[21]
  viability, T/C: 75.1%
[22]
  viability, T/C: 75.7%
[39]
  viability, T/C: 72.1%
[40]
  viability, T/C: 74.1%
[25]
  viability, T/C: 70.5%
[26]
  viability, T/C: 72.4%
[27]
  viability, T/C: 80.8%
[28]
  viability, T/C: 78.1%

## O=C(c1ccc(F)c(F)c1Nc1ccc(I)cc1F)N1CC(O)([C@@H]2CCCCN2)C1 + CNC(C)C(=O)NC1CN(S(=O)(=O)c2cccc(S(=O)(=O)N3CCC4CCC(C(=O)NC(c5ccccc5)c5ccccc5)N4C(=O)C(NC(=O)C(C)NC)C3)c2)CCC2CCC(C(=O)NC(c3ccccc3)c3ccccc3)N2C1=O
Second compound 0.01 µM
  IC50: 110 nM
Second compound 0.0316 µM
  IC50: 108 nM
Second compound 0.1 µM
  IC50: 76.2 nM
Second compound 0.316 µM
  IC50: 49.2 nM
Second compound 1 µM
  IC50: 72.6 nM
[1]
  viability, T/C: 92.2%
[2]
  viability, T/C: 80.4%
[3]
  viability, T/C: 62.6%
[4]
  viability, T/C: 51.2%
[5]
  viability, T/C: 40.9%
[6]
  viability, T/C: 31.8%
[7]
  viability, T/C: 83.6%
[8]
  viability, T/C: 78.1%
[9]
  viability, T/C: 64.5%
[10]
  viability, T/C: 51.4%
[11]
  viability, T/C: 36.7%
[12]
  viability, T/C: 25.5%
[13]
  viability, T/C: 80%
[14]
  viability, T/C: 79.1%
[15]
  viability, T/C: 62.5%
[16]
  viability, T/C: 46.5%
[17]
  viability, T/C: 34.2%
[18]
  viability, T/C: 30.3%
[19]
  viability, T/C: 77.7%
[20]
  viability, T/C: 67.3%
[21]
  viability, T/C: 54.5%
[22]
  viability, T/C: 42.8%
[23]
  viability, T/C: 32.8%
[24]
  viability, T/C: 26.8%
[25]
  viability, T/C: 79.8%
[26]
  viability, T/C: 76.9%
[27]
  viability, T/C: 59.4%
[28]
  viability, T/C: 47.7%
[29]
  viability, T/C: 29.7%
[30]
  viability, T/C: 24.1%
